Patent US9505716B2, “Pyrrolidine triple reuptake inhibitors” (SUNOVION PHARMACEUTICALS INC., priority 2009, dated 2016)

Legend:
[1] = biological target: T1, recombinant human serotonin transporter expressed in HEK-293 cells (Homo sapiens, UniProt P31645); experiment: Serotonin functional uptake assay for human reuptake transporter; assay type: cell-based; details: functional uptake of serotonin; read-out: hSERT (IC50 nM)
T1 construct: expressed in transfected cells; host or cells: HEK-293
Protocol: (§1) Compounds were initially tested at 10 μM in duplicate.
HEK-293 cells expressing human serotonin transporter were plated before the assay. […] Cells with internalized [^3H]serotonin were washed and the amount of tritium taken into cells is counted using a liquid scintillation counter to determine [^3H]serotonin uptake. Non-specific binding of tritium was measured in a control reaction containing […], and was subtracted from the counts for assays to correct for non-specific binding of tritium. Reduction of [^3H]serotonin uptake by 50 percent or more (≧50%) relative to an uninhibited control reaction indicates significant inhibitory activity.

[2] = biological target: T2, recombinant human dopamine transporter expressed in either CHO-K1 or HEK293 cells (Homo sapiens, UniProt Q01959); experiment: Dopamine functional uptake assay for human reuptake transporter; assay type: cell-based; details: functional uptake of dopamine
T2 construct: expressed in transfected cells; host or cells: CHO-K1 or HEK293
T2 sequence (Q01959 whole entry): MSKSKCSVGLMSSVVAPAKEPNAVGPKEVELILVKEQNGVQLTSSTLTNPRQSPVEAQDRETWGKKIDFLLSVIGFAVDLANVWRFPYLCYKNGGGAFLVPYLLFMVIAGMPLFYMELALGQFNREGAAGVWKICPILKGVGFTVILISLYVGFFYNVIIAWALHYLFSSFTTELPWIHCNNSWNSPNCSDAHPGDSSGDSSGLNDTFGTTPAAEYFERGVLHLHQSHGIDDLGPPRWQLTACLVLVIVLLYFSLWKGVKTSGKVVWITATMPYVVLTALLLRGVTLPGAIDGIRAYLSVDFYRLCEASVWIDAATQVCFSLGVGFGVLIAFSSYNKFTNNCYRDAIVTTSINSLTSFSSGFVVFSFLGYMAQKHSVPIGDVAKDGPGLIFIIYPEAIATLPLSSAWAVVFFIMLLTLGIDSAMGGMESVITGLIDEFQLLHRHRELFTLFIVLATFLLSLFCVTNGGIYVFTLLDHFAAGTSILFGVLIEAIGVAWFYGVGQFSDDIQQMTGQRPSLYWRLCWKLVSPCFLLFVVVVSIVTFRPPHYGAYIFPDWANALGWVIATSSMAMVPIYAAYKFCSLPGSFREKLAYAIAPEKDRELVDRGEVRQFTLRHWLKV
Protocol: as §1
Either CHO-K1 or HEK293 cells expressing human recombinant dopamine transporter were plated before the assay. Test compound and/or vehicle was preincubated with cells in modified HEPES buffer pH 7.1 or pH 7.4 for 20 minutes at 18 to 25° C. and 50 nM [^3H]dopamine was then added for an additional timed incubation period (10 to 30 minutes). After washing the cells to remove [^3H]dopamine not internalized, the cells were lysed, and the amount of tritium in the lysate was measured using a liquid scintillation counter to determine [^3H]dopamine uptake. Non-specific binding of tritium was measured in a control reaction containing 10 μM nomifensine, and was subtracted from the counts for assays to correct for non-specific binding of tritium. Reduction of [^3H]dopamine uptake by 50 percent or more (≧50%) relative to an uninhibited control reaction indicates significant inhibitory activity.

[3] = biological target: T3, recombinant human norepinephrine transporter expressed in either HEK293 or MDCK cells (Homo sapiens, UniProt P23975); experiment: Norepinephrine functional uptake assay for human reuptake transporter; assay type: cell-based; details: functional uptake of norepinephrine
T3 construct: expressed in transfected cells; host or cells: HEK293 or MDCK
T3 sequence (P23975 whole entry): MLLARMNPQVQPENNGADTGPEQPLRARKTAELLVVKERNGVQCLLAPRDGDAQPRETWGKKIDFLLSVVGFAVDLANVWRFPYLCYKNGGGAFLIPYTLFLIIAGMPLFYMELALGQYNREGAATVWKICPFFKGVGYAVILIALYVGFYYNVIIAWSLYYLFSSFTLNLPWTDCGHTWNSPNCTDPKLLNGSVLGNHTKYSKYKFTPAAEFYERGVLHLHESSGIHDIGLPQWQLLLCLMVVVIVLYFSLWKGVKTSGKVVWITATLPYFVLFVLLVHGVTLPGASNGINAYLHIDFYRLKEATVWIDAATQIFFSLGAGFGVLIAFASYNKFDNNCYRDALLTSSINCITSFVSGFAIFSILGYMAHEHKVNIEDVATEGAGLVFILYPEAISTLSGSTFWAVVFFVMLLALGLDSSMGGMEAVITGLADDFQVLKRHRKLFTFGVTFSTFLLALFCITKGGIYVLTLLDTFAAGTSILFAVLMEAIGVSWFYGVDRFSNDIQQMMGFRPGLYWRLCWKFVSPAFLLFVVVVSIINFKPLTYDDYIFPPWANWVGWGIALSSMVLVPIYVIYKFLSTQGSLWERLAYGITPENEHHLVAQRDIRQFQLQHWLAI
Protocol: as §1
The cells were plated before the assay. Test compound and/or vehicle was preincubated with cells in modified HEPES buffer pH 7.1 or pH 7.4 for 20 minutes at 18 to 25° C. […] After the cells were washed to remove [^3H]norepinephrine not internalized, the cells were lysed, and the amount of tritium in the cell lysate was measured using a liquid scintillation counter to determine [^3H]norepinephrine uptake. Non-specific binding of tritium was measured in a control reaction containing […] (or […]), and was subtracted from the counts for assays to correct for non-specific binding of tritium. Reduction of [^3H]norepinephrine uptake by 50 percent or more (≧50%) relative to an uninhibited control reaction indicates significant inhibitory activity.

serotonin uptake sites = serotonin uptake sites (Homo sapiens, UniProt P31645); details: compared with the racemic compound; cited from earlier work
Sequence of serotonin uptake sites (P31645 whole entry): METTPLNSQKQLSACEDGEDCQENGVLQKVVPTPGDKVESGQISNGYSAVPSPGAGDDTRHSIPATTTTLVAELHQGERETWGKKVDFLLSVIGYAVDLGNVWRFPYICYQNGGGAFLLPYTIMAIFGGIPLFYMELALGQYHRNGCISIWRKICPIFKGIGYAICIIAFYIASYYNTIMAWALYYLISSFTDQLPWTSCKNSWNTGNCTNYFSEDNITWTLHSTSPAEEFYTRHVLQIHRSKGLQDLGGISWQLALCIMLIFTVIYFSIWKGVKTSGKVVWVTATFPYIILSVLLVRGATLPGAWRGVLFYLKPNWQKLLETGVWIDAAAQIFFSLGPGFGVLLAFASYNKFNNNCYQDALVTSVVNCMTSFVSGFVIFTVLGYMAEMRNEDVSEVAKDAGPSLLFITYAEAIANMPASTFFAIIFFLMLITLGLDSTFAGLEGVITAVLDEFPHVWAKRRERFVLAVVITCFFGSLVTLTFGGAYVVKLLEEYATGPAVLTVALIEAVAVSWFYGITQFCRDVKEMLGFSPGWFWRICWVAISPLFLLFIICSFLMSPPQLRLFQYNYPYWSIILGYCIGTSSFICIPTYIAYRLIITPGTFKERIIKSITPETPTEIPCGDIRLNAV

[4] = in vivo; cited from earlier work

T1 sequence (P31645 whole entry): as above

Row | Compound | IC50 [1] [nM] | hDAT (IC50 nM) [2] | hNET (IC50 nM) [3] | affinity for the serotonin uptake sites (serotonin uptake sites) | immobility in the tail suspension test [4]
1 | CN1CCC(C2(c3ccc(Cl)c(Cl)c3)CCCCC2)C1 (centres unmarked) [Compound 4] | > 500 | +++ (IC50 < 10 nM) | − (IC50 > 500 nM) | – | –
2 | c1ccc2cc(C3(C4CCNC4)CCC3)ccc2c1 (single isomer, unassigned) [Compound 13] | < 100 | ++ (IC50 ≦ 100 nM) | ++ (IC50 ≦ 100 nM) | – | –
3 | c1ccc2cc(C3(C4CCNC4)CCCC3)ccc2c1 (single isomer, unassigned) [Compound 11] | < 1 | +++ (IC50 < 10 nM) | +++ (IC50 < 10 nM) | – | –
4 | Clc1ccc(C2(C3CCNC3)CCCC2)cc1Cl (single isomer, unassigned) [Compound 5] | < 100 | ++ (IC50 ≦ 100 nM) | ++ (IC50 ≦ 100 nM) | – | –
5 | CO[C@]1(C)CC[C@](c2ccc(Cl)c(Cl)c2)([C@H]2CCNC2)CC1 [Compound 25] | < 10 | +++ (IC50 < 10 nM) | ++ (IC50 ≦ 100 nM) | – | –
6 | Clc1ccc(C2(C3CCNC3)CCCC2)cc1Cl (single isomer, unassigned) [Compound 6] | < 10 | ++ (IC50 ≦ 100 nM) | ++ (IC50 ≦ 100 nM) | – | –
7 | C[C@]1(O)CC[C@](c2ccc(Cl)c(Cl)c2)([C@@H]2CCNC2)CC1 [Compound 19] | < 10 | +++ (IC50 < 10 nM) | ++ (IC50 ≦ 100 nM) | – | –
8 | O[C@H]1CC[C@](c2ccc(Cl)c(Cl)c2)([C@@H]2CCNC2)CC1 [Compound 24] | < 1 | +++ (IC50 < 10 nM) | ++++ (IC50 < 1 nM) | – | –
9 | O[C@H]1CC[C@](c2ccc(Cl)c(Cl)c2)([C@H]2CCNC2)CC1 [Compound 23] | < 10 | +++ (IC50 < 10 nM) | +++ (IC50 < 10 nM) | – | –
10 | c1ccc2cc(C3(C4CCNC4)CCCC3)ccc2c1 (single isomer, unassigned) [Compound 12] | < 1 | ++ (IC50 ≦ 100 nM) | ++++ (IC50 < 1 nM) | – | –
11 | C[C@]1(O)CC[C@@](c2ccc(Cl)c(Cl)c2)([C@@H]2CCNC2)CC1 [Compound 18] | < 10 | ++ (IC50 ≦ 100 nM) | +++ (IC50 < 10 nM) | – | –
12 | c1ccc2cc(C3(C4CCNC4)CCCCC3)ccc2c1 (single isomer, unassigned) [Compound 10] | < 1 | ++ (IC50 ≦ 100 nM) | ++ (IC50 ≦ 100 nM) | – | –
13 | C[C@]1(O)CC[C@@](c2ccc(Cl)c(Cl)c2)([C@H]2CCNC2)CC1 [Compound 17] | < 10 | ++ (IC50 ≦ 100 nM) | +++ (IC50 < 10 nM) | – | –
14 | Clc1ccc(C2(C3CCNC3)CCC2)cc1Cl (single isomer, unassigned) [Compound 7] | < 100 | +++ (IC50 < 10 nM) | ++ (IC50 ≦ 100 nM) | – | –
15 | CO[C@]1(C)CC[C@@](c2ccc(Cl)c(Cl)c2)([C@H]2CCNC2)CC1 [Compound 28] | < 100 | ++ (IC50 ≦ 100 nM) | +++ (IC50 < 10 nM) | – | –
16 | O[C@H]1CC[C@@](c2ccc(Cl)c(Cl)c2)([C@@H]2CCNC2)CC1 [Compound 22] | < 10 | +++ (IC50 < 10 nM) | +++ (IC50 < 10 nM) | – | –

Row | Compound | IC50 [1] [nM] | hDAT (IC50 nM) [2] | hNET (IC50 nM) [3] | affinity for the serotonin uptake sites (serotonin uptake sites) | immobility in the tail suspension test [4]
17 | CO[C@]1(C)CC[C@](c2ccc(Cl)c(Cl)c2)([C@@H]2CCNC2)CC1 [Compound 26] | < 100 | +++ (IC50 < 10 nM) | +++ (IC50 < 10 nM) | – | –
18 | CN1CCC(C2(c3ccc(Cl)c(Cl)c3)CCCCC2)C1 (centres unmarked) [Compound 3] | 100 to 500 | ++ (IC50 ≦ 100 nM) | + (100 nM < IC50 ≦ 500 nM) | – | –
19 | Clc1ccc(C2(C3CCNC3)CCCCC2)cc1Cl (single isomer, unassigned) [Compound 2] | < 100 | ++ (IC50 ≦ 100 nM) | ++ (IC50 ≦ 100 nM) | – | –
20 | C[C@]1(O)CC[C@](c2ccc(Cl)c(Cl)c2)([C@H]2CCNC2)CC1 [Compound 20] | < 10 | +++ (IC50 < 10 nM) | ++ (IC50 ≦ 100 nM) | – | –
21 | O[C@]1(C2(c3ccc(Cl)c(Cl)c3)CCCC2)CCNC1 [Compound 30] | < 100 | ++ (IC50 ≦ 100 nM) | ++ (IC50 ≦ 100 nM) | – | –
22 | Clc1ccc(C2(C3CCNC3)CCOCC2)cc1Cl (centres unmarked) [Compound 15] | < 100 | ++ (IC50 ≦ 100 nM) | ++ (IC50 ≦ 100 nM) | – | –
23 | Clc1ccc(C2(C3CCNC3)CCC2)cc1Cl (single isomer, unassigned) [Compound 8] | < 100 | ++ (IC50 ≦ 100 nM) | ++ (IC50 ≦ 100 nM) | – | –
24 | O[C@@]1(C2(c3ccc(Cl)c(Cl)c3)CCCC2)CCNC1 [Compound 29] | < 10 | ++ (IC50 ≦ 100 nM) | +++ (IC50 < 10 nM) | – | –
25 | c1ccc2cc(C3(C4CCNC4)CCCCC3)ccc2c1 (single isomer, unassigned) [Compound 9] | < 10 | ++ (IC50 ≦ 100 nM) | + (100 nM < IC50 ≦ 500 nM) | – | –
26 | c1ccc2cc(C3(C4CCNC4)CCC3)ccc2c1 (single isomer, unassigned) [Compound 14] | < 10 | ++ (IC50 ≦ 100 nM) | ++ (IC50 ≦ 100 nM) | – | –
27 | Clc1ccc(C2(C3CCNC3)CCCCC2)cc1Cl (single isomer, unassigned) [Compound 1] | < 1 | ++ (IC50 ≦ 100 nM) | +++ (IC50 < 10 nM) | – | –
28 | Clc1ccc(C2(C3CCNC3)CCOCC2)cc1Cl (centres unmarked) [Compound 16] | < 10 | +++ (IC50 < 10 nM) | +++ (IC50 < 10 nM) | – | –
29 | Clc1ccc([C@@]23CNC[C@@H]2C3)cc1Cl (single isomer, unassigned) [DOV 21,947, (+)-1-(3,4-dichlorophenyl)-3-azabicyclo[3.1.0]hexane] | – | – | – | significantly greater affinity | dose-dependent reduction in immobility
30 | CO[C@]1(C)CC[C@@](c2ccc(Cl)c(Cl)c2)([C@@H]2CCNC2)CC1 [Compound 27] | < 10 | ++ (IC50 ≦ 100 nM) | +++ (IC50 < 10 nM) | – | –
31 | O[C@H]1CC[C@@](c2ccc(Cl)c(Cl)c2)([C@H]2CCNC2)CC1 [Compound 21] | < 10 | ++ (IC50 ≦ 100 nM) | +++ (IC50 < 10 nM) | – | –
